Values of other authors, collected in patent publication US8642630B2, “Endogeneous repair factor production accelerators” (Ono Pharmaceutical Co., Ltd., priority 2002, dated 2014).
Where a name gives a salt, the structure may show the parent alone.

System: vascular endothelial cells
Conditions: cited from earlier work

For `CC#CCC(C)[C@H](O)/C=C/[C@@H]1[C@H]2c3cccc(CCCC(=O)O)c3O[C@H]2C[C@H]1O` (mixture of isomers) [Beraprost, (±)-(1R,2R,3aS,8bS)-2,3,3a,8b-terahydro-2-hydroxy-1-[(E)-(3S,4RS)-3-hydroxy-4-methyl-1-octen-6-ynyl]-1H-cyclopenta[b]benzofuran-5-butanoic acid sodium salt], the “endothelial cell growth action, in words” value (in vitro) is listed as “shows endothelial cell growth action” and the “HGF production, in words” value (vascular endothelial cells in vitro) is listed as “increases HGF production in vascular endothelial cells in vitro”.
